Several values for one entry are separate records, joined by “and”; a condition that tells them apart may be missing. Identical values can stand only once. Like-named read-outs stand apart in the source and are kept apart here.
How the values were obtained:
CYP3A4/5 = details: cited from earlier work
CYP3A = details: 25 mg RIL daily; cited from earlier work
[1] = cited from earlier work
[2] = tested on: markers of immune activation; details: 10 mg bid for 5 weeks, virologically suppressed HIV+ participants; cited from earlier work
[3] = cited from earlier work; remark: listed apart in the source
[4] = cited from earlier work; remark: listed apart in the source

O=C1Nc2ccc(Cl)cc2[C@@](C#CC2CC2)(C(F)(F)F)O1 [EFV, efavirenz]
median increase in plasma 4β-OHCC/cholesterol ratio (CYP3A4/5; 4th week after initiation of ART with EFV): 257% | median increase in plasma 4β-OHCC/cholesterol ratio (CYP3A4/5; 16th week after initiation of ART with EFV): 291% | median increase in plasma 4β-OHCC/cholesterol ratio (CYP3A4/5; 48th week after initiation of ART with EFV): 165%

Cc1cc(/C=C/C#N)cc(C)c1Nc1ccnc(Nc2ccc(C#N)cc2)n1 [RIL, rilpivirine]
effect on CYP3A-dependent drug metabolism (CYP3A): did not alter

N#CC[C@H](C1CCCC1)n1cc(-c2ncnc3[nH]ccc23)cn1 [ruxolitinib]
CL/F typical value (with EFV) (Model IV (separated CL/F by EFV status), participants administered ART with EFV (N = 14)): 22.5 L/h and 21.2 L/h | IIV V1 ω^2 (both, human, in vivo): 0.0607 | IOV F ω^2 (both, human, in vivo): 0.0669 | IOV F ω^2 (both, human, in vivo, po): 0.0567 | ruxolitinib CL/F with co-administered RIL regimens (co-administered RIL/FTC/TAF (N = 3) or RIL/FTC/TDF (N = 1)): not increased | median post hoc estimated CL/F (men, wk1): 16.0 L/h | median post hoc estimated CL/F (men, wk4/5): 14.3 L/h | geometric mean CL/F (post hoc, Model IV) (wk1, EFV/FTC/TDF group): 22.3 L/h | geometric mean CL/F (post hoc, Model IV) (wk1, INSTI group): 13.8 L/h | mean post hoc predicted CL/F (wk1, N = 39): 16.6 L/h | geometric mean CL/F (post hoc, Model IV) (wk4/5, EFV/FTC/TDF group): 20.8 L/h | geometric mean CL/F (post hoc, Model IV) (wk4/5, INSTI group): 12.7 L/h | mean post hoc predicted CL/F (wk4/5, N = 37): 15.7 L/h | median post hoc estimated CL/F (women, wk1): 15.2 L/h | median post hoc estimated CL/F (women, wk4/5): 13.6 L/h | reduction of ruxolitinib CL/F ([1]; 10 mg ruxolitinib tablet with 200 mg bid ketoconazole, N = 16): 91% | reduction of ruxolitinib CL/F ([1]; 10 mg ruxolitinib tablet with 500 mg erythromycin, N = 15): 21% | increase in ruxolitinib CL/F ([1]; 30 mg ruxolitinib tablet before and after 10 days of 600 mg rifampin, healthy participants N = 12): 71% | markers of immune activation [2]: significantly decreased | IIV Ka [3]: 75% | IIV V1 [3]: 28% | IIV V2/F [3]: 102% | V2 [3]: 11.2 L | IIV CL/F ([3]; myelofibrosis patients): 39.1% | V1 ([3]; normalized to a mean body weight of 72.9 kg): 58.6 L | orally absorbed [4]: > 95%

Reference: PMC8599628 (Journal of clinical pharmacology, 2021)
